From the NIST ThermoML archive (doi:10.1016/j.jct.2018.02.013)
± gives the expanded uncertainty stated by the source.

How the values were obtained:
[1] = 101.33 kPa, Liquid; for thermal conductivity: transient hot wire; for mass density: Vibrating tube method; for viscosity: Cone and plate viscometry; for electrical conductivity: Direct current cell with electrodes
[2] = molar heat capacity at constant pressure; conditions: 101.33 kPa, Liquid, Small sample (50 mg) DSC

## CCCCCCCCn1cc[n+](C)c1.O=S(=O)([N-]S(=O)(=O)C(F)(F)F)C(F)(F)F
[1]; 280.03 K
  thermal conductivity: 0.1289 ± 0.01 W/m/K
[1]; 288.73 K
  thermal conductivity: 0.1279 ± 0.012 W/m/K
[1]; 297.76 K
  thermal conductivity: 0.1279 ± 0.013 W/m/K
[1]; 307.59 K
  thermal conductivity: 0.1279 ± 0.0082 W/m/K
[1]; 318.58 K
  thermal conductivity: 0.1265 ± 0.012 W/m/K
[1]; 328.58 K
  thermal conductivity: 0.1259 ± 0.012 W/m/K
[1]; 337.48 K
  thermal conductivity: 0.1259 ± 0.014 W/m/K
[1]; 347.72 K
  thermal conductivity: 0.1259 ± 0.013 W/m/K
[1]; 357.76 K
  thermal conductivity: 0.1245 ± 0.014 W/m/K

## CC(=O)[O-].CCCCCCCCCCCCCC[P+](CCCCCC)(CCCCCC)CCCCCC [trihexyl(tetradecyl)phosphonium acetate]
[1]; 278.37 K
  thermal conductivity: 0.1629 ± 0.0089 W/m/K
[1]; 288.1 K
  thermal conductivity: 0.1612 ± 0.0085 W/m/K
[1]; 293.15 K
  mass density: 897.6 ± 1.9 kg/m3
[1]; 293.2 K
  viscosity: 254 ± 17 mPa·s
[1]; 298.15 K
  mass density: 894.6 ± 1.9 kg/m3
[1]; 298.16 K
  thermal conductivity: 0.1602 ± 0.0095 W/m/K
[1]; 298.2 K
  viscosity: 196.2 ± 13 mPa·s
[1]; 299.6 K
  electrical conductivity: 0.00554 ± 0.0003 S/m
[1]; 303.15 K
  mass density: 891.5 ± 1.9 kg/m3
[1]; 303.2 K
  viscosity: 151.2 ± 9.8 mPa·s
[1]; 303.9 K
  electrical conductivity: 0.00767 ± 0.00037 S/m
[1]; 307.92 K
  thermal conductivity: 0.1598 ± 0.01 W/m/K
[1]; 308.2 K
  viscosity: 117.4 ± 7.5 mPa·s
[1]; 308.7 K
  electrical conductivity: 0.0101 ± 0.00046 S/m
[1]; 313.15 K
  mass density: 885.2 ± 1.9 kg/m3
[1]; 313.2 K
  viscosity: 92.23 ± 5.8 mPa·s
[1]; 313.7 K
  electrical conductivity: 0.0129 ± 0.00058 S/m
[1]; 317.98 K
  thermal conductivity: 0.1582 ± 0.01 W/m/K
[1]; 318.2 K
  viscosity: 73.75 ± 4.6 mPa·s
[1]; 318.8 K
  electrical conductivity: 0.0167 ± 0.00074 S/m
[1]; 323.15 K
  mass density: 879 ± 1.9 kg/m3
[1]; 323.2 K
  viscosity: 59.32 ± 3.6 mPa·s
[1]; 323.8 K
  electrical conductivity: 0.0209 ± 0.0009 S/m
[1]; 328.08 K
  thermal conductivity: 0.1565 ± 0.011 W/m/K
[1]; 328.2 K
  viscosity: 48.52 ± 3 mPa·s
[1]; 328.8 K
  electrical conductivity: 0.026 ± 0.0011 S/m
[1]; 333.15 K
  mass density: 872.9 ± 1.9 kg/m3
[1]; 333.2 K
  viscosity: 40.22 ± 2.5 mPa·s
[1]; 333.9 K
  electrical conductivity: 0.0317 ± 0.0014 S/m
[1]; 338 K
  thermal conductivity: 0.1558 ± 0.011 W/m/K
[1]; 338.2 K
  viscosity: 33.78 ± 2.1 mPa·s
[1]; 338.9 K
  electrical conductivity: 0.0383 ± 0.0016 S/m
[1]; 343.15 K
  mass density: 866.7 ± 1.8 kg/m3
[1]; 343.2 K
  viscosity: 28.55 ± 1.8 mPa·s
[1]; 343.9 K
  electrical conductivity: 0.0458 ± 0.0019 S/m
[1]; 348.06 K
  thermal conductivity: 0.1551 ± 0.01 W/m/K
[1]; 348.2 K
  viscosity: 24.46 ± 1.5 mPa·s
[1]; 349 K
  electrical conductivity: 0.0542 ± 0.0023 S/m
[1]; 353.15 K
  mass density: 860.7 ± 1.8 kg/m3
[1]; 353.2 K
  viscosity: 20.95 ± 1.3 mPa·s
[1]; 357.1 K
  thermal conductivity: 0.1541 ± 0.01 W/m/K
[1]; 358.2 K
  viscosity: 18.13 ± 1.1 mPa·s
[1]; 363.15 K
  mass density: 854.7 ± 1.8 kg/m3
[1]; 363.2 K
  viscosity: 15.71 ± 0.96 mPa·s
[1]; 368.2 K
  viscosity: 13.72 ± 0.84 mPa·s
[2]; 293.15 K
  molar heat capacity at constant pressure: 1095.6 ± 67 J/K/mol
[2]; 298.15 K
  molar heat capacity at constant pressure: 1097.7 ± 68 J/K/mol
[2]; 303.15 K
  molar heat capacity at constant pressure: 1101.5 ± 68 J/K/mol
[2]; 308.15 K
  molar heat capacity at constant pressure: 1105.9 ± 68 J/K/mol
[2]; 313.15 K
  molar heat capacity at constant pressure: 1111.3 ± 68 J/K/mol
[2]; 318.15 K
  molar heat capacity at constant pressure: 1116.7 ± 69 J/K/mol
[2]; 323.15 K
  molar heat capacity at constant pressure: 1122.7 ± 69 J/K/mol
[2]; 328.15 K
  molar heat capacity at constant pressure: 1128.1 ± 69 J/K/mol
[2]; 333.15 K
  molar heat capacity at constant pressure: 1134.1 ± 70 J/K/mol
[2]; 338.15 K
  molar heat capacity at constant pressure: 1140.6 ± 71 J/K/mol
[2]; 343.15 K
  molar heat capacity at constant pressure: 1147.1 ± 71 J/K/mol
[2]; 348.15 K
  molar heat capacity at constant pressure: 1154.2 ± 71 J/K/mol
[2]; 353.15 K
  molar heat capacity at constant pressure: 1158.5 ± 72 J/K/mol
[2]; 358.15 K
  molar heat capacity at constant pressure: 1166.7 ± 72 J/K/mol
[2]; 363.15 K
  molar heat capacity at constant pressure: 1173.2 ± 72 J/K/mol

## CCCC(=O)[O-].CCCCCCCCCCCCCC[P+](CCCCCC)(CCCCCC)CCCCCC [trihexyl(tetradecyl)phosphonium butyrate]
[1]; 277.77 K
  thermal conductivity: 0.16 ± 0.0097 W/m/K
[1]; 288.17 K
  thermal conductivity: 0.159 ± 0.0087 W/m/K
[1]; 293.15 K
  mass density: 893 ± 1.9 kg/m3
[1]; 293.2 K
  viscosity: 334.3 ± 24 mPa·s
[1]; 295.2 K
  electrical conductivity: 0.00389 ± 0.00019 S/m
[1]; 298.15 K
  mass density: 890.4 ± 1.9 kg/m3
[1]; 298.2 K
  viscosity: 251.1 ± 17 mPa·s
[1]; 298.48 K
  thermal conductivity: 0.1566 ± 0.0095 W/m/K
[1]; 303.15 K
  mass density: 887.8 ± 1.9 kg/m3
[1]; 303.2 K
  viscosity: 190.2 ± 13 mPa·s
[1]; 303.8 K
  electrical conductivity: 0.00631 ± 0.00028 S/m
[1]; 306.44 K
  thermal conductivity: 0.1553 ± 0.0095 W/m/K
[1]; 308.2 K
  viscosity: 146.3 ± 9.5 mPa·s
[1]; 308.5 K
  electrical conductivity: 0.0083 ± 0.00037 S/m
[1]; 313.15 K
  mass density: 881.2 ± 1.9 kg/m3
[1]; 313.2 K
  viscosity: 115 ± 7.3 mPa·s
[1]; 313.9 K
  electrical conductivity: 0.0106 ± 0.00048 S/m
[1]; 318.11 K
  thermal conductivity: 0.1543 ± 0.0081 W/m/K
[1]; 318.2 K
  viscosity: 91.46 ± 5.7 mPa·s
[1]; 318.5 K
  electrical conductivity: 0.0137 ± 0.00061 S/m
[1]; 323.15 K
  mass density: 875.1 ± 1.9 kg/m3
[1]; 323.2 K
  viscosity: 74.08 ± 4.6 mPa·s
[1]; 323.6 K
  electrical conductivity: 0.0172 ± 0.00075 S/m
[1]; 327.69 K
  thermal conductivity: 0.1526 ± 0.011 W/m/K
[1]; 328.2 K
  viscosity: 60.22 ± 3.7 mPa·s
[1]; 328.8 K
  electrical conductivity: 0.0214 ± 0.0009 S/m
[1]; 333.15 K
  mass density: 869 ± 1.9 kg/m3
[1]; 333.2 K
  viscosity: 49.78 ± 3.1 mPa·s
[1]; 333.8 K
  electrical conductivity: 0.0261 ± 0.0011 S/m
[1]; 336.59 K
  thermal conductivity: 0.1509 ± 0.012 W/m/K
[1]; 338.2 K
  viscosity: 41.11 ± 2.5 mPa·s
[1]; 338.7 K
  electrical conductivity: 0.0315 ± 0.0013 S/m
[1]; 343.15 K
  mass density: 862.7 ± 1.8 kg/m3
[1]; 343.2 K
  viscosity: 34.26 ± 2.1 mPa·s
[1]; 343.9 K
  electrical conductivity: 0.0377 ± 0.0016 S/m
[1]; 348.16 K
  thermal conductivity: 0.1503 ± 0.01 W/m/K
[1]; 348.2 K
  viscosity: 28.85 ± 1.8 mPa·s
[1]; 349.1 K
  electrical conductivity: 0.0446 ± 0.0019 S/m
[1]; 353.15 K
  mass density: 856.7 ± 1.8 kg/m3
[1]; 353.2 K
  viscosity: 24.66 ± 1.5 mPa·s
[1]; 355.83 K
  thermal conductivity: 0.1492 ± 0.011 W/m/K
[1]; 358.2 K
  viscosity: 21.36 ± 1.3 mPa·s
[1]; 363.15 K
  mass density: 850.3 ± 1.8 kg/m3
[1]; 363.2 K
  viscosity: 18.76 ± 1.1 mPa·s
[1]; 368.2 K
  viscosity: 16.49 ± 1 mPa·s
[2]; 293.15 K
  molar heat capacity at constant pressure: 1107.1 ± 69 J/K/mol
[2]; 298.15 K
  molar heat capacity at constant pressure: 1112.8 ± 69 J/K/mol
[2]; 303.15 K
  molar heat capacity at constant pressure: 1118.5 ± 69 J/K/mol
[2]; 308.15 K
  molar heat capacity at constant pressure: 1123.6 ± 69 J/K/mol
[2]; 313.15 K
  molar heat capacity at constant pressure: 1129.9 ± 70 J/K/mol
[2]; 318.15 K
  molar heat capacity at constant pressure: 1136.2 ± 70 J/K/mol
[2]; 323.15 K
  molar heat capacity at constant pressure: 1142.5 ± 70 J/K/mol
[2]; 328.15 K
  molar heat capacity at constant pressure: 1148.2 ± 71 J/K/mol
[2]; 333.15 K
  molar heat capacity at constant pressure: 1154.5 ± 71 J/K/mol
[2]; 338.15 K
  molar heat capacity at constant pressure: 1161.3 ± 71 J/K/mol
[2]; 343.15 K
  molar heat capacity at constant pressure: 1168.2 ± 72 J/K/mol
[2]; 348.15 K
  molar heat capacity at constant pressure: 1175 ± 73 J/K/mol
[2]; 353.15 K
  molar heat capacity at constant pressure: 1181.9 ± 73 J/K/mol
[2]; 358.15 K
  molar heat capacity at constant pressure: 1188.7 ± 73 J/K/mol
[2]; 363.15 K
  molar heat capacity at constant pressure: 1196.1 ± 74 J/K/mol
